Calls of active or inactive are those of the source. No rule for the calls is given here.
Each compound was assayed on SARS coronavirus 3C-like protease (3CLpro, nsp5) (assay: blockers of SARS 3CLpro activity – biochemical, fluorescence, assay provider results, late-stage follow-up (AID 488967)). Conditions: recombinant 3CLpro, fluorogenic peptide cleavage; at 100 µM; active compounds read high.
For O=C(Nc1ccc(N(Cc2ccsc2)C(=O)Cn2nnc3ccccc32)cc1)c1cccs1, the inhibition was 32.9% (inactive).
For CCC(C)c1ccc(N(C(=O)c2ccco2)[C@H](C(=O)NC(C)(C)C)c2cccnc2)cc1 (some centres not stated), the inhibition was 93.1%.
With O=C(Nc1ccc(N(Cc2ccsc2)C(=O)Cn2nnc3ccccc32)cc1)C1CCC1 the inhibition was 85.7%.
With CC(C)(C)NC(=O)[C@@H](c1cccnc1)N(C(=O)c1ccco1)c1ccc(C(C)(C)C)cc1 the inhibition was 98.8%.
For CC(C)(C)NC(=O)C(c1ccsc1)N(C(=O)Cn1nnc2ccccc21)c1ccc(NC(=O)C(C)(C)C)cc1 (configuration not stated), the inhibition was 77.4%.
For CC(C)(C)NC(=O)[C@H](c1cccnc1)N(C(=O)c1ccco1)c1ccc(C(C)(C)C)cc1, the inhibition was 25% (inactive).
O=C(Nc1ccc(N(Cc2ccsc2)C(=O)Cn2nnc3ccccc32)cc1)C1CCCCC1 was tested, and the inhibition was 22.1% (inactive).
In the case of CC(=O)Nc1ccc(N(C(=O)Cn2nnc3ccccc32)C(C(=O)NC(C)(C)C)c2cccc(F)c2)cc1 (configuration not stated), the inhibition is reported as 90.2%.
CC(C)(C)NC(=O)C(c1ccsc1)N(C(=O)Cn1nnc2ccccc21)c1ccc(NC(=O)C2CCCCC2)cc1 (configuration not stated) gave an inhibition of 84.9%.
Compound O=C(Nc1ccc(N(Cc2ccsc2)C(=O)Cn2nnc3ccccc32)cc1)C1CC1 has an inhibition of 82.8%.
For O=C(NCc1ccccc1)C(c1cccc(F)c1)N(C(=O)Cn1nnc2ccccc21)C1CC2CCC1C2 (configuration not stated), the inhibition was 42.5% (inactive).
For CC(C)COC(=O)Nc1ccc(N(Cc2ccsc2)C(=O)Cn2nnc3ccccc32)cc1, the inhibition was 10.3% (inactive).
CC(C)(C)NC(=O)C(c1cccnc1)N(C(=O)c1ccc(Cl)o1)c1ccc(C(C)(C)C)cc1 (configuration not stated) gave an inhibition of 89.6%.
Compound CC(C)(C)NC(=O)C(c1cncnc1)N(C(=O)c1cnc[nH]1)c1ccc(C(C)(C)C)cc1 (configuration not stated) has an inhibition of 66.8%.
For CC(C)(C)NC(=O)C(c1cccnc1)N(C(=O)Cc1cnc[nH]1)c1ccc(C(C)(C)C)cc1 (configuration not stated), the inhibition was 15.7% (inactive).
With CC(C)(C)NC(=O)C(c1ccsc1)N(C(=O)Cn1nnc2ccccc21)c1ccc(NC(=O)c2ccccc2)cc1 (configuration not stated) the inhibition was -7% (inactive).
In the case of CC(C)(C)NC(=O)C(c1ccsc1)N(C(=O)Cn1nnc2ccccc21)c1ccc(NC(=O)C2CC2)cc1 (configuration not stated), the inhibition is reported as 85.7%.
For CC(C)(C)NC(=O)C(c1cccc(F)c1)N(C(=O)Cn1nnc2ccccc21)C1CC2CCC1C2 (configuration not stated), the inhibition was 32.7% (inactive).
CCC(C)c1ccc(N(C(=O)c2ccco2)[C@@H](C(=O)NC(C)(C)C)c2cccnc2)cc1 (some centres not stated) was tested, and the inhibition was -3.8% (inactive).
In the case of CC(C)COC(=O)Nc1ccc(N(C(=O)Cn2nnc3ccccc32)C(C(=O)NC(C)(C)C)c2ccsc2)cc1 (configuration not stated), the inhibition is reported as 0.9% (inactive).
CC(C)(C)NC(=O)C(c1ccsc1)N(C(=O)Cn1nnc2ccccc21)c1ccc(NC(=O)c2ccno2)cc1 (configuration not stated) was tested, and the inhibition was 59.4%.
For CC(=O)Nc1ccc(N(C(=O)Cn2nnc3ccccc32)C(C(=O)NCc2ccccc2)c2cccc(F)c2)cc1 (configuration not stated), the inhibition was 84.7%.
With O=C(Nc1ccc(N(Cc2ccsc2)C(=O)Cn2nnc3ccccc32)cc1)c1ccccc1 the inhibition was 18.2% (inactive).
Work on CC(C)C(=O)Nc1ccc(N(Cc2ccsc2)C(=O)Cn2nnc3ccccc32)cc1 yielded an inhibition of 83.6%.
In the case of CC(C)(C)NC(=O)C(c1ccsc1)N(C(=O)Cn1nnc2ccccc21)c1ccc(NC(=O)c2cccs2)cc1 (configuration not stated), the inhibition is reported as 14.6% (inactive).
CC(C)(C)NC(=O)C(c1cccnc1)N(C(=O)c1ccc[nH]1)c1ccc(C(C)(C)C)cc1 (configuration not stated) was tested, and the inhibition was 18.6% (inactive).
In the case of CC(C)(C)NC(=O)C(c1cccnc1)N(C(=O)c1ncco1)c1ccc(C(C)(C)C)cc1 (configuration not stated), the inhibition is reported as 51.6%.
For CC(C)(C)NC(=O)C(c1cccc(F)c1)N(C(=O)Cn1nnc2ccccc21)C12CC3CC(CC(C3)C1)C2 (configuration not stated), the inhibition was 10.6% (inactive).
CC(C)(C)NC(=O)C(c1cncnc1)N(C(=O)c1cnco1)c1ccc(C(C)(C)C)cc1 (configuration not stated) was tested, and the inhibition was 36.2% (inactive).
With O=C(NCc1ccccc1)C(c1cccc(F)c1)N(C(=O)Cn1nnc2ccccc21)C12CC3CC(CC(C3)C1)C2 (configuration not stated) the inhibition was 11.1% (inactive).
CC(C)(C)C(=O)Nc1ccc(N(Cc2ccsc2)C(=O)Cn2nnc3ccccc32)cc1 gave an inhibition of 86.3%.
In the case of CC(C)(C)NC(=O)C(c1ccsc1)N(C(=O)Cn1nnc2ccccc21)c1ccc(NC(=O)C2CCC2)cc1 (configuration not stated), the inhibition is reported as 22.7% (inactive).

Reference: PubChem BioAssay AID488967 (The Scripps Research Institute Molecular Screening Center, 2010)
